Data set [1] concerns Jeko-1 cells. The data set is described as follows: Jeko-1 MCL tumor xenograft model, combination with Wee1 inhibitor. The data set is classed as in vivo. To be noted: Compound 1 7.5 mg/kg, AZD-1775 15 mg/kg, or both. The protocol:
A Jeko-1 mantle cell lymphoma (MCL) tumor xenograft model was used to study the combined effects of Chk1 inhibition with Compound 1 and a Wee1 inhibitor. Jeko-1 cells were inoculated subcutaneously into the flanks of CB17.SCID mice. Once tumors reached a volume of about 200 mm^3, mice were randomized into study groups (n=10 per group). […] A negative control group was included wherein the mice were treated with vehicle only.

The target of data set [2] is T1, Chk1 (Homo sapiens, UniProt O14757).
T1 sequence (O14757 1-476): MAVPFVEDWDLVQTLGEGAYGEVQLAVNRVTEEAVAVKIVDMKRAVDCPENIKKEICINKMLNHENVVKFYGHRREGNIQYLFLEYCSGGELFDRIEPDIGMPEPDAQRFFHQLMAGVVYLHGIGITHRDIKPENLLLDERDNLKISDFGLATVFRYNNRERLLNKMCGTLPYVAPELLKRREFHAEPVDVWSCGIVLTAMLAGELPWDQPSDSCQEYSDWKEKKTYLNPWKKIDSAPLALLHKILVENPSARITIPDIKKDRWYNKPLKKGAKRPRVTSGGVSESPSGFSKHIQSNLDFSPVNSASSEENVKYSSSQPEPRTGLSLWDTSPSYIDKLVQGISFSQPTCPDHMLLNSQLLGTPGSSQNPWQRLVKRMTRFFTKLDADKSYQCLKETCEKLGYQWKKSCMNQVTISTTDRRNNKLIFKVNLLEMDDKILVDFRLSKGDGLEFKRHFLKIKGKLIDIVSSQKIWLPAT
The data set can be described thus: Chk1 enzymatic assay. The data set is classed as biochemical. To be noted: 10 μM [γ-33P]-ATP, 20 μM peptide substrate (SEQ ID NO:1); read-out: IC50, enzymatic potency against Chk1.

In data set [3] the target is T1, Chk1. The data set is described as follows: Cellular Chk1 assay, serine 296 phospho-epitope immunoblot in HT-29 cells. It counts as cell-based. The settings on record: HT-29 colon carcinoma cells, 18-hour assay, anti-Chk1 serine 296 phospho-epitope antibody. The protocol:
Cellular Chk1 was assayed using HT-29 colon carcinoma cells in an 18-hour assay by immunoblotting with a rabbit anti-Chk1 serine 296 phosphor-epitope antibody (obtained from Cell Signaling Technology Inc.).
(Immunoblotting shows a protein as a band on a membrane.)

The next data set concerns the target Chk2 (Homo sapiens, UniProt O96017). The data set is described as follows: Kinase panel selectivity, IC50 relative to Chk1. The data set is classed as biochemical. The procedure: Compound 1 was screened against a panel of 120 kinases, including those represented in FIG. 3A, using a 1 μM ATP concentration. The IC50 values, measured at the ATP Km for each kinase, are represented relative to Chk1 in FIG. 3B. Cellular IC50 values were derived from signal transduction assays in relevant cell lines using phosphor-epitope-specific antibodies.

In data set [4] the test system is solid and hematological tumor-derived cell lines. The data set is described as follows: Large cell line panel proliferation screens (CellTiter-Glo). The data set is classed as cell-based. The settings on record: in vitro; lower end printed in nM, upper end in μM; read-out: IC50 values, single agent, large cell line panels. The protocol: A panel of 232 carcinoma derived cell lines was screened in a high-throughput proliferation assay using dilutions of Compound 1 or cisplatin. Cell lines were treated with serial half-log dilutions of Compound 1 or cisplatin using a starting concentration of 30 μM to achieve 9 dose levels and assayed 72 hours later for proliferation using a CellTiter-Glo® Assay (Promega). IC50 (EC50) values were calculated by fitting the dose-response data using a nonlinear regression model.
A panel of about 70 hematopoietic cell lines was screened for sensitivity to Compound 1 in a 72-hour proliferation assay (CrownBio Omnipanel). Cell lines that were screened included those representing anaplastic large cell lymphoma (ALCL), acute myeloid leukemia (AML), B-cell acute lymphoblastic leukemia (B-ALL), Burkitt lymphoma, chronic lymphocytic leukemia (CLL), chronic myelogenous leukemia (CML), mantle cell lymphoma (MCL), multiple myeloma (MM), acute promyelocytic leukemia (PML), and T-cell acute lymphoblastic leukemia (T-ALL).
For orientation: In ATP-based viability assays light output follows the ATP content of the culture.

The subject of another data set is SK-MES-1 tumor cells. The data set is described as follows: SK-MES-1 NSCLC tumor xenograft model. The settings on record: treated mice. The data set is classed as in vivo. The procedure:
(§1) In order to assess the in vivo efficacy of Compound 1, two different NSCLC xenograft models were used. SK-MES-1 or NCI-H727 tumor cells were inoculated subcutaneously in the flanks of athymic nude mice. Once tumors reached a volume of about 200 mm^3, mice were randomized into study groups (n=10 per group). Mice were treated by oral gavage with Compound 1 at a dose of 12.5, 25, or 50 mg/kg once per day. A negative control group was also included, wherein the animals were administered vehicle only.

Another data set relates to NCI-H727 tumor cells. The data set is described as follows: NCI-H727 NSCLC tumor xenograft model, single agent. It counts as in vivo. The settings on record: treated mice. The procedure:
as §1

Data set [5] deals with Jeko-1 cells. The data set is described as follows: Jeko-1 MCL xenograft model, single agent. The settings on record: mouse, in vivo. The protocol:
(§2) The effects of Compound 1 were assessed in two different mantle cell lymphoma (MCL) xenograft models. Jeko-1 and or Maver-1 cells were inoculated subcutaneously in the flanks of CB17.SCID (for Jeko-1 cells) or athymic nude (for Maver-1 cells) mice. Once the tumors reached a volume of about 200 mm^3, the mice were randomized into study groups (n=10 per group). Mice were treated with Compound 1 by oral gavage, or with only vehicle as a negative control. In one treatment group, Compound 1 was administered once per day for 21 days. In the other treatment group, Compound 1 was administered twice per day for three cycles, wherein each cycle constituted treatment for three consecutive days, followed by no treatment for four consecutive days.

The next data set concerns Maver-1 cells. The data set is described as follows: Maver-1 MCL xenograft model, single agent. The settings on record: mouse, in vivo. The protocol: as §2
The next data set concerns MV-411 cells. The data set can be described thus: MV-411 AML tumor xenograft model. It counts as in vivo. To be noted: single agent. The source says:
An MV-411 tumor xenograft model was used to test the ability of Compound 1 to inhibit AML tumor growth in vivo. MV-411 cells were mixed with Matrigel in a 1:1 ratio and injected subcutaneously into the right flanks of female NOD.SCID mice. Once tumors reached a volume of about 100 to 200 mm^3, mice were randomized into study groups (n=10 per group) and dosed with Compound 1 by oral gavage.

Data set [6] is described as follows: GLP cardiovascular safety study. It counts as in vivo. To be noted: QTc interval, left ventricular pressure, contractility end points. The source says:
7-day repeat dose tolerability studies have been completed in mice, rats, and cynomolgus monkeys, and there have been no findings in a cynomolgus monkey GLP cardiovascular safety study (including corrected QT (QTc) interval, left ventricular pressure (LVP), and contractility end points). Compound 1 is active as a single agent, but is also active in combination with chemotherapeutic agents and Wee1 inhibitors.

The next data set can be described thus: Efflux ratio. The data set is classed as in vitro ADME.
Another data set in a line: Metabolic stability. It counts as in vitro ADME.
The next data set has as its system CYP. The data set can be described thus: CYP inhibition. It counts as in vitro ADME.
The target of another data set is hERG (Homo sapiens, UniProt Q12809). The data set is described as follows: hERG inhibition. In general terms: hERG is a cardiac potassium channel; its block is linked to QT prolongation.

Entries after “also recorded” stand apart in the source; their conditions may differ.

Chain of hERG (Q12809 whole entry): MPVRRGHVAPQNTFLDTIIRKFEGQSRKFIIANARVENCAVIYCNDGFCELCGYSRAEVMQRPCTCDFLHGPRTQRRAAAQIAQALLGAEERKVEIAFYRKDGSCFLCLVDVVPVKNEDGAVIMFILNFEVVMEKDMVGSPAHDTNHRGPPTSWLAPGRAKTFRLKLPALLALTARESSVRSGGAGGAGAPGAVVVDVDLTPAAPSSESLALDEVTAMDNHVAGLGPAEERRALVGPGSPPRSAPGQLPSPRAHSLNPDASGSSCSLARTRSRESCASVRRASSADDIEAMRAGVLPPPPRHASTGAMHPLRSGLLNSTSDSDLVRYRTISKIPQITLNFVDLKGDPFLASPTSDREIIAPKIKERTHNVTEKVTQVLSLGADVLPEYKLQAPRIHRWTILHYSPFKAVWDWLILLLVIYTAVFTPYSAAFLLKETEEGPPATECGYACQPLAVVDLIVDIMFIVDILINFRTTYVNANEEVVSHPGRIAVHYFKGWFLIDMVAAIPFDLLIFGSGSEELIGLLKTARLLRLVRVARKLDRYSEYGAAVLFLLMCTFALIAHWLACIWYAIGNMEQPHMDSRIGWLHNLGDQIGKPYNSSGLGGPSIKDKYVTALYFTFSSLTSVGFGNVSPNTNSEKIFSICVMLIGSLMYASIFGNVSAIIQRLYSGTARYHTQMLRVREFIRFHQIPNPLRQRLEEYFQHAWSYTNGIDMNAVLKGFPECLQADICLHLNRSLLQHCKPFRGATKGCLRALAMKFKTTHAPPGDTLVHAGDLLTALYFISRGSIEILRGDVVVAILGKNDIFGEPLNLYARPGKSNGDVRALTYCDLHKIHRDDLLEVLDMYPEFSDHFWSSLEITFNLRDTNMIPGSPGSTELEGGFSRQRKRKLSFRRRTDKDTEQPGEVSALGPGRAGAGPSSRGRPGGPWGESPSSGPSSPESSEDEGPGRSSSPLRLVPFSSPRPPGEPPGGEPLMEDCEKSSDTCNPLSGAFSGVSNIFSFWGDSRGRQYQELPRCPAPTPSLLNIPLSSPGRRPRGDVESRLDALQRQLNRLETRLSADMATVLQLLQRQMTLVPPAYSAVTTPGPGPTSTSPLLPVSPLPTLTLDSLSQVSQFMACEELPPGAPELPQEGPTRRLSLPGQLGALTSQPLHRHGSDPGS
Chain of Chk2 (O96017 whole entry, species assumed): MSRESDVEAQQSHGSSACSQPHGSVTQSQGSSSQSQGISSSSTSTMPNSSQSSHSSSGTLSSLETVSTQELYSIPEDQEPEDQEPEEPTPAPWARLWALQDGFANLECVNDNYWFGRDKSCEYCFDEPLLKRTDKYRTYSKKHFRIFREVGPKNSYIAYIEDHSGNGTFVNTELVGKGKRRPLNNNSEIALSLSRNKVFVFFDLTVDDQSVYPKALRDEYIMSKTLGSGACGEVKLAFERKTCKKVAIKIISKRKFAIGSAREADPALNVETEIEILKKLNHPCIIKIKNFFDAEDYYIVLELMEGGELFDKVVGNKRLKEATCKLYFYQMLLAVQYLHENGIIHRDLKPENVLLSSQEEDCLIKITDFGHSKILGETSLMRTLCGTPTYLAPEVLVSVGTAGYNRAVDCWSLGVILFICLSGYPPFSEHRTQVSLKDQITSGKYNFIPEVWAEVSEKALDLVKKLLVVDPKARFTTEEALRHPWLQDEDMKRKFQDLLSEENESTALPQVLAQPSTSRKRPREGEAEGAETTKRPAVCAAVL

On to `C=CCn1c(=O)c2cnc(Nc3ccc(N4CCN(C)CC4)cc3)nc2n1-c1cccc(C(C)(C)O)n1` [AZD-1775, 2-allyl-1-(6-(2-hydroxypropan-2-yl)pyridin-2-yl)-6-((4-(4-methylpiperazin-1-yl)phenyl)amino)-1H-pyrazolo[3,4-d]pyrimidin-3(2H)-one, reference compound], for which, in the data set on Jeko-1 cells [1] (oral gavage once per day, three cycles of 3 days on/4 days off), the tumor growth entry is recorded as “inhibited by both agents alone”.
One may read the IC50 as the concentration needed to halve the response being measured. As to `COc1cc(C2(F)CCN(C)CC2)ccc1-c1cc(Nc2cnc(C#N)cn2)n[nH]1` [Compound 1, 5-((5-(4-(4-fluoro-1-methylpiperidin-4-yl)-2-methoxyphenyl)-1H-pyrazol-3-yl)amino)pyrazine-2-carbonitrile], the IC50 was 124 pM on Chk1 [2], 511 pM against Chk1 [3] and ≥ 30 nM in data set [4]. For the same molecule, the “selectivity for Chk1 over Chk2” value at Chk2 was “more than 1,000 ×”. The “effect on body weight” value in the data set on SK-MES-1 tumor cells and in the data set on NCI-H727 tumor cells was “minimal effects on body weight” in each case. For the same molecule, the “tolerability (body weight)” value with Jeko-1 cells [5], with Maver-1 cells, in the data set with Jeko-1 cells [1] and in the data set with MV-411 cells was “well-tolerated” each time. For the same molecule, in [6], the cardiovascular safety findings result is “low risk of cardiotoxicity; also recorded: no findings”. The efflux ratio entry in “Efflux ratio” was “low”. In addition, the metabolic stability entry in “Metabolic stability” is recorded as “good”. Also, the CYP inhibition result with CYP is given as “no CYP inhibition liabilities”. Moreover, at hERG, the hERG inhibition index result is recorded as “excellent”.

The values above are taken from US20200108074A1, “COMBINATIONS OF CHK1- AND WEE1- INHIBITORS” (Seattle Genetics, Inc., priority 2017, published 2020).
